Marks after values point to notes of the source that are not given here.
Experiments:
Format in all cases: in vivo
[1] = tested on: Puccinia recondita f. sp. tritici; assay: Test I: wheat leaf rust on wheat seedlings, sprayed the day before inoculation, visual disease rating; details: 100 = 100% disease control; for pest or weed control at 200 ppm: Puccinia recondita, 168 h
Excerpt: (§1) General protocol for preparing test suspensions for Tests A-J: The test compounds were first dissolved in acetone in an amount equal to 3% of the final volume and then suspended at the desired concentration (in ppm) in acetone and purified water (50/50 mix) containing 250 ppm of the surfactant Trem® 014 (polyhydric alcohol esters). The resulting test suspensions were then used in tests A-J. Spraying a 200 ppm test suspension to the point of run-off on the test plants was the equivalent of a rate of 500 g/ha. […] The test suspension was sprayed to the point of run-off on wheat seedlings. […] A dash (-) indicates no test results. All results are for 200 ppm except where followed by “*”, which indicates 40 ppm.

[2] = tested on: Septoria nodorum; assay: Test F: wheat glume blotch on wheat seedlings, sprayed the day before inoculation, visual disease rating; details: 100 = 100% disease control; for pest or weed control at 200 ppm: Parastagonospora nodorum, 264 h
Excerpt: as §1

[3] = tested on: Botrytis cinerea; assay: Test C: tomato Botrytis on tomato seedlings, sprayed the day before inoculation, visual disease rating; details: 100 = 100% disease control; for pest or weed control at 200 ppm: Botrytis cinerea, 120 h
Excerpt: General protocol for preparing test suspensions for Tests A-J: The test compounds were first dissolved in acetone in an amount equal to 3% of the final volume and then suspended at the desired concentration (in ppm) in acetone and purified water (50/50 mix) containing 250 ppm of the surfactant Trem® 014 (polyhydric alcohol esters). The resulting test suspensions were then used in tests A-J. Spraying a 200 ppm test suspension to the point of run-off on the test plants was the equivalent of a rate of 500 g/ha. […] The test suspension was sprayed to the point of run-off on tomato seedlings. […] A dash (-) indicates no test results. All results are for 200 ppm except where followed by “*”, which indicates 40 ppm.

[4] = tested on: Alternaria solani; assay: Test D: tomato early blight, sprayed the day before inoculation, visual disease rating; details: 100 = 100% disease control; for pest or weed control at 200 ppm: Alternaria solani, 168 h
Excerpt: as §1

[5] = tested on: Erysiphe graminis f. sp. tritici; assay: Test J: wheat powdery mildew on wheat seedlings, sprayed the day before inoculation, visual disease rating; details: 100 = 100% disease control; for pest or weed control at 200 ppm: Blumeria graminis, 168 h
Excerpt: as §1

[6] = tested on: Septoria tritici; assay: Test G: wheat leaf blotch on wheat seedlings, sprayed the day before inoculation, visual disease rating; details: 100 = 100% disease control; for pest or weed control at 200 ppm: Zymoseptoria tritici, 504 h
Excerpt: General protocol for preparing test suspensions for Tests A-J: The test compounds were first dissolved in acetone in an amount equal to 3% of the final volume and then suspended at the desired concentration (in ppm) in acetone and purified water (50/50 mix) containing 250 ppm of the surfactant Trem® 014 (polyhydric alcohol esters). The resulting test suspensions were then used in tests A-J. Spraying a 200 ppm test suspension to the point of run-off on the test plants was the equivalent of a rate of 500 g/ha. […] The test suspension was sprayed to the point of run-off on wheat seedlings. The following day the seedlings were inoculated with a spore suspension of Septoria tritici (the causal agent of wheat leaf blotch) and incubated in saturated atmosphere at 24° C. for 48 h, and then moved to a growth chamber at 20° C. for 19 days, after which time visual disease ratings were made. […] A dash (-) indicates no test results. All results are for 200 ppm except where followed by “*”, which indicates 40 ppm.

[7] = 0 = no control relative to controls

SMILES	pest or weed control at 200 ppm [1, 7] [%]	pest or weed control at 200 ppm [2, 7] [%]	pest or weed control at 200 ppm [3, 7] [%]	pest or weed control at 200 ppm [4, 7] [%]	pest or weed control at 200 ppm [5, 7] [%]	pest or weed control at 200 ppm [6, 7] [%]	pest or weed control at 200 ppm ([1]; 0 = no control) [%]	pest or weed control at 200 ppm ([2]; 0 = no control) [%]	pest or weed control at 200 ppm ([3]; 0 = no control) [%]	pest or weed control at 200 ppm ([4]; 0 = no control) [%]	pest or weed control at 200 ppm ([5]; 0 = no control) [%]	pest or weed control at 200 ppm ([6]; 0 = no control) [%]	other results
Fc1ccc(-c2c(Cl)nnn2-c2ccc(Cl)cc2)c(F)c1 [Compound 24, 4-chloro-1-(4-chlorophenyl)-5-(2,4-difluorophenyl)-1H-1,2,3-triazole]	28	0	90	0	95	67	–	–	–	–	–	–	–
C#Cc1nc(Cl)c(-c2c(F)cccc2F)n1-c1cccc(F)c1 [Compound 47, 4-chloro-5-(2,6-difluorophenyl)-2-ethynyl-1-(3-fluorophenyl)-1H-imidazole]	54	0	94	42	93	77	–	–	–	–	–	–	–
N#Cc1nc(Cl)c(-c2c(F)ccc(F)c2F)n1-c1ccc(Cl)cc1 [Compound 57, 4-chloro-1-(4-chlorophenyl)-5-(2,3,6-trifluorophenyl)-1H-imidazole-2-carbonitrile]	96	0	84	99	100	87	–	–	–	–	–	–	–
Cc1nn(C)c(-c2c(F)cccc2F)c1-c1cccc(F)c1 [Compound 60, 5-(2,6-difluorophenyl)-4-(3-fluorophenyl)-1,3-dimethyl-1H-pyrazole]	0	0	81	0	0	2	–	–	–	–	–	–	–
Cn1nc(Br)c(-c2c(F)cccc2F)c1-c1ccc(Cl)cc1 [Compound 125, 3-bromo-5-(4-chlorophenyl)-4-(2,6-difluorophenyl)-1-methyl-1H-pyrazole]	91	0	98	100	100	92	–	–	–	–	–	–	–
COc1cc(F)c(-c2c(Cl)ncn2-c2cccc(F)c2)c(F)c1 [Compound 246, 4-chloro-5-(2,6-difluoro-4-methoxyphenyl)-1-(3-fluorophenyl)-1H-imidazole]	–	–	–	–	–	–	100	95	100	100	99	93	–
COc1cc(F)c(-c2c(Cl)nc(Br)n2-c2cccc(F)c2)c(F)c1 [Compound 256, 2-bromo-4-chloro-5-(2,6-difluoro-4-methoxyphenyl)-1-(3-fluorophenyl)-1H-imidazole]	–	–	–	–	–	–	100	100	100	100	99	97	–
COc1cc(F)c(-c2c(Cl)nc(C)n2-c2cccc(F)c2)c(F)c1 [Compound 280, 4-chloro-5-(2,6-difluoro-4-methoxyphenyl)-1-(3-fluorophenyl)-2-methyl-1H-imidazole]	–	–	–	–	–	–	100	100	100	100	100	95	–
COc1ccc(F)c(-c2c(Br)ncn2-c2ccc(F)cc2)c1F [Compound 450, 4-bromo-5-(2,6-difluoro-3-methoxyphenyl)-1-(4-fluorophenyl)-1H-imidazole]	100	99	97	100	100	97	–	–	–	–	–	–	–
COc1cc(F)c(-c2c(C)nc(C)n2-c2ccc(Cl)c(F)c2)c(F)c1 [compound 44]	–	–	–	–	–	–	–	–	–	–	–	–	Test I disease control rating ([1]; 40 ppm (marked *)): 99* %; Test F disease control rating ([2]; 40 ppm (marked *)): 40* %; Test C disease control rating ([3]; 40 ppm (marked *)): 99* %; Test D disease control rating ([4]; 40 ppm (marked *)): 100* %; Test J disease control rating ([5]; 40 ppm (marked *)): 98* %; Test G disease control rating ([6]; 40 ppm (marked *)): 92* %
